These compounds were tested against T1, recombinant EphB4 kinase (Homo sapiens, UniProt P54760) (assay: Test System for EphB4 (HTRF kinase assay)). Conditions: polyGluAlaTyr substrate, 2 μmol of ATP, read-out: IC50 of EphB4 kinase inhibition.
T1 construct: purchased ProQinase GmbH, Freiburg, Germany
T1 sequence (P54760 16-987): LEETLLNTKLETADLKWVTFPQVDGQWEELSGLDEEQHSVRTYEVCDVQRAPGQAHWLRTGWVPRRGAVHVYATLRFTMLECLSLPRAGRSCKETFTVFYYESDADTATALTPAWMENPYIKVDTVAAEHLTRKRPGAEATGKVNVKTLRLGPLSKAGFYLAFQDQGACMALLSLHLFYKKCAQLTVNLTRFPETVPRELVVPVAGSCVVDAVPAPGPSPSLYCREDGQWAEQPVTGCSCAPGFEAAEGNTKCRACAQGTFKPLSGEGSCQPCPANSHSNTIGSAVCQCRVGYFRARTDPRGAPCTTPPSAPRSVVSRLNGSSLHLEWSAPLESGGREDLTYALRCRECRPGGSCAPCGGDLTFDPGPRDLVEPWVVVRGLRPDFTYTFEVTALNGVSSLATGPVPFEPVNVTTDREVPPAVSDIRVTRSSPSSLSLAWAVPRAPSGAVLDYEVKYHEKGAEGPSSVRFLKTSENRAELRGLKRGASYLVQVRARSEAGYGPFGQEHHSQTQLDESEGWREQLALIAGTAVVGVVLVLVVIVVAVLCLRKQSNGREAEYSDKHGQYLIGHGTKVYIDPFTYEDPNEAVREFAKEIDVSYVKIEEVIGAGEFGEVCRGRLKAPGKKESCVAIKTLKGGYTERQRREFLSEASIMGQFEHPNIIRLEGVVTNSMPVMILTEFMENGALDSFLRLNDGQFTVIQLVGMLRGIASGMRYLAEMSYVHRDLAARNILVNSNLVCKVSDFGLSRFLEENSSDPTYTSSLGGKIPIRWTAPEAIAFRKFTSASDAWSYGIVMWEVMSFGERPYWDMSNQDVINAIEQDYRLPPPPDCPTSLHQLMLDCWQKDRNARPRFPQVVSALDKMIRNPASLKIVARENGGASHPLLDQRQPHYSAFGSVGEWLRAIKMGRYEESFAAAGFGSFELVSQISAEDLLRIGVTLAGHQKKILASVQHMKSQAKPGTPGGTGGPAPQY
Type: biochemical
Description: A mixture that consists of 20 ng/ml of recombinant EphB4 kinase (related to ProQinase GmbH, Freiburg, Germany), 2.67 μg/ml of polyGluAlaTyr, 2 μmol of ATP, 25 mmol of HEPES (pH 7.3), 5 mmol of MgCl2, 1 mmol of MnCl2, 2 mmol of DTT, 0.1 mmol of NaVO4, 1% (v/v) glycerol, 0.02% NP40, EDTA-free protease inhibitors (Complete Fa. [Company] Roche, 1 tablet in 50 ml) is incubated at 20° C. for 10 minutes. Test substances are dissolved in 100% DMSO and introduced in 0.017× volume before the beginning of the reaction. 60 minutes after the addition of 1.7× volume of a solution of 50 mmol of Hepes, pH 7.0, 0.2% BSA, 0.14 μg/ml of PT66-europium, 3.84 μg/ml of SA-XL665, and 75 mmol of EDTA, the batch is measured in a Discovery HTRF-measuring device of the PerkinElmer Company.

Row | IC50 [µM] | SMILES
1 | 6.1 | COc1cccc(-c2cc(C(C)(C)C)nc3[nH]nc(N)c23)c1 [Example 6, 6-tert-Butyl-4-(3-methoxyphenyl)-1H-pyrazolo[3,4b]pyridin-3-ylamine]

Same assay, conditions: polyGluAlaTyr substrate, 2 μmol of ATP, read-out: IC50 of EphB4 kinase inhibition (stated as upper bound)

Row | SMILES | IC50 [µM]
2 | COc1cc(O)cc(-c2cc(-c3ccncc3)nc3[nH]nc(N)c23)c1 [Example 33, 3-(3-Amino-6-pyridin-4-yl-1H-pyrazolo[3,4-b]pyridin-4-yl)-5-methoxyphenol] | < 10
3 | Cc1ccc(O)cc1-c1cc(-c2ccncc2)nc2[nH]nc(N)c12 [Example 35, 3-(3-Amino-6-pyridin-4-yl-1H-pyrazolo[3,4-b]pyridin-4-yl)-4-methyl-phenol] | < 10
4 | COc1cc(OC)cc(-c2cc(C(C)(C)C)nc3[nH]nc(N)c23)c1 [Example 39, 6-tert-Butyl-4-(3,5-dimethoxyphenyl)-1H-pyrazolo[3,4-b]pyridin-3-ylamine] | < 10
5 | CC(C)Oc1cc(O)cc(-c2cc(C(C)(C)C)nc3[nH]nc(N)c23)c1 [Example 40] | < 10
6 | CC(C)(C)c1cc(-c2cc(O)ccc2[N+](=O)[O-])c2c(N)n[nH]c2n1 [Example 41, 3-(3-Amino-6-tert-butyl-1H-pyrazolo[3,4b]pyridin-4-yl)-4-nitro-phenol] | < 10
7 | Nc1n[nH]c2nc(C3CC3)cc(-c3ccc(Cl)c(Cl)c3)c12 [Example 51, 6-Cyclopropyl-4-(3,4-dichlorophenyl)-1H-pyrazolo[3,4-b]pyridin-3-ylamine] | < 10

Further lines, results first:

Row | IC50 [µM] | SMILES
8 | < 10 | COc1cccc(-c2cc(C(C)(C)C)nc3[nH]nc(N)c23)c1 [Example 6, 6-tert-Butyl-4-(3-methoxyphenyl)-1H-pyrazolo[3,4b]pyridin-3-ylamine]
9 | < 10 | Cc1ccc(-c2cc(C3CCC(=O)CC3)nc3[nH]nc(N)c23)cc1 [Example 12, 4-(3-Amino-4-p-tolyl-1H-pyrazolo[3,4b]pyridin-6-yl)-cyclohexanone]
10 | < 10 | Cc1ccc(-c2cc(C3CCC(N4CCNCC4)CC3)nc3[nH]nc(N)c23)cc1 (centres unmarked) [Example 14, 6-(4-piperazin-1-yl-cyclohexyl)-4-p-tolyl-1H-pyrazolo[3,4b]pyridin-3-ylamine]
11 | < 10 | Cc1ccc(-c2cc(C3CCC(N4CCCCC4)CC3)nc3[nH]nc(N)c23)cc1 (centres unmarked) [Example 16, 6-(4-Piperidin-1-yl-cyclohexyl)-4-p-tolyl-1H-pyrazolo[3,4b]pyridin-3-ylamine]
